Laboratory results taken from patent US12509446B2, “FYN and VEGFR2 kinase inhibitors” (ROTTAPHARM BIOTECH S.R.L., priority 2019, dated 2025).
Read-outs that look alike come from different tables or passages of the source.

Tests used:
MMP3 = assay: Gene expression in rat articular chondrocytes under IL-1β stimulation, MMP3; assay type: cell-based; design: key to MMP3 gene expression, no effect: ne: no effect; conditions: for MMP3 gene expression, percentage of inhibitory effect at the highest non toxic concentration: 3 μM; for MMP3 gene expression, percentage of inhibitory effect at the highest non toxic concentration / MMP3 gene expression, no effect: 24 h; for IC50: Rattus norvegicus, Chondrocyte, 24 h incubation
In short: (§1)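 Primary rat articular chondrocytes, 10 days after plating, serum-reduced (DMEM 0.4%), co-treated with compounds and IL-1β 2 ng/ml; top concentration set by chondrocyte toxicity. TaqMan RT-PCR normalised to 18S; IL-1β and ADAMTS-5 read at 6 h, MMP3 and MMP13 at 24 h.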

VEGFR2 = VEGFR2 (Homo sapiens (Human), UniProt P35968); assay: In vitro VEGFR2 kinase activity assay (Eurofins Cerep); assay type: biochemical; conditions: read-out: VEGFR2 KINASE INHIBITION IC50
Sequence of VEGFR2 (P35968 20-1356): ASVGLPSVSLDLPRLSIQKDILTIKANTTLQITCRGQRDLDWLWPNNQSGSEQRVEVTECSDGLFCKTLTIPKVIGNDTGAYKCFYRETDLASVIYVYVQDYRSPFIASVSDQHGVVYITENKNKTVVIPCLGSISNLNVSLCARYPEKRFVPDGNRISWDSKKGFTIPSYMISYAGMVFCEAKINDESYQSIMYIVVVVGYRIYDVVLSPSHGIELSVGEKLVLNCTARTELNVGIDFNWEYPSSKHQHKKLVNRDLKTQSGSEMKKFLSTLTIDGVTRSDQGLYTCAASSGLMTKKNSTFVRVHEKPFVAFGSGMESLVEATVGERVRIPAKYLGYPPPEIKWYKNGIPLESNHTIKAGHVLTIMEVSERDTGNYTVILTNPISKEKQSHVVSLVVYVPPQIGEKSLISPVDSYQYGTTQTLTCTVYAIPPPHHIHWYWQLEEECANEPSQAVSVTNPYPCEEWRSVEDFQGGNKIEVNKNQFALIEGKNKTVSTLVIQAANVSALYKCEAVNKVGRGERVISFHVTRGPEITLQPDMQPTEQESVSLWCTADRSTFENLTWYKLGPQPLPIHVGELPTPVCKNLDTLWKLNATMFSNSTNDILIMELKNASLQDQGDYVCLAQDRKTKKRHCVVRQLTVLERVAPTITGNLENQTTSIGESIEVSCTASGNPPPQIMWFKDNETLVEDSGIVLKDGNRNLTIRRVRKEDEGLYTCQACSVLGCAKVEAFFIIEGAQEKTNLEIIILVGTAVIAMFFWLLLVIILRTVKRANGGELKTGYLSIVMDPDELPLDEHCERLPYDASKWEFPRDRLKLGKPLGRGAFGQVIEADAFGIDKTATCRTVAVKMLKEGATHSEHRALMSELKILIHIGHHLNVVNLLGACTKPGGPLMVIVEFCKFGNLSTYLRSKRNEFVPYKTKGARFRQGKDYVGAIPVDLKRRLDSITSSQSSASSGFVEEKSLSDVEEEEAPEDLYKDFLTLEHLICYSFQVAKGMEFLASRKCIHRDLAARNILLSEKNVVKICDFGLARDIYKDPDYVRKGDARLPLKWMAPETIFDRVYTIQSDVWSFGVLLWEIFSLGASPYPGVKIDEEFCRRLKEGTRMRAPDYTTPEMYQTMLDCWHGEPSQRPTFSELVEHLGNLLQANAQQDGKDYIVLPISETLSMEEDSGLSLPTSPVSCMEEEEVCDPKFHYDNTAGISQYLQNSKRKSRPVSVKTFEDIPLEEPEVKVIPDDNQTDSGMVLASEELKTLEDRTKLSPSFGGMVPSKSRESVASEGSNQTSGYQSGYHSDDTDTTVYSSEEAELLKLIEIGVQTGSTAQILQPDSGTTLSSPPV
In short: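 Contract biochemical kinase assay on human VEGFR2 with inhibitors at 10^−8 to 10^−5 M final (some re-tested from 10^−9 M). Activity expressed as percent of no-compound control; IC50 by non-linear regression of mean replicate inhibition curves.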

COX2 = assay: Gene expression in rat articular chondrocytes under IL-1β stimulation, COX2; assay type: cell-based; design: key to COX2 gene expression, no effect: ne: no effect; conditions: 24 h
Fyn = Fyn (Homo sapiens (Human), UniProt P06241); assay: Z′-LYTE in vitro Fyn kinase activity assay; assay type: biochemical; conditions: ATP 50 μM; read-out: FYN KINASE INHIBITION IC50
Sequence of Fyn (P06241 whole entry): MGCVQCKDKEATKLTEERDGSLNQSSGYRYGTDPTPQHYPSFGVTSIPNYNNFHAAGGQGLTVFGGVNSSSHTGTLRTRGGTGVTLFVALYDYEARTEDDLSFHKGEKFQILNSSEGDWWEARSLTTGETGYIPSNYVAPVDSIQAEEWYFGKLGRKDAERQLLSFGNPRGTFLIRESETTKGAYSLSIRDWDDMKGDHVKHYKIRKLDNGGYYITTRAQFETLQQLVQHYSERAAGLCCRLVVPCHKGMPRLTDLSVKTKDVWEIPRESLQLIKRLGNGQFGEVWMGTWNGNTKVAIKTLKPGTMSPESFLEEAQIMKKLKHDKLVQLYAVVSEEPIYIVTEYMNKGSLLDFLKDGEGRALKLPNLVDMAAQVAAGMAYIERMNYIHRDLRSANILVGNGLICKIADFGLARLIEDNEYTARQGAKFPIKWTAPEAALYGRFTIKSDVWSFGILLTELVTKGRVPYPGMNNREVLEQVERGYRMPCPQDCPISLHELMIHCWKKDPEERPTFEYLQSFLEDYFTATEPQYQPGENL
In short: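 Z′-LYTE FRET format with full-length active Fyn in 50 mM Hepes pH 7.5, 10 mM MgCl2, 1 mM EGTA, 0.01% Brij-35, 1% DMSO final; 60 minutes at 25° C. Percent phosphorylation from 0% and 100% phosphorylation controls; IC50 by non-linear curve fitting of percent inhibition.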

ADAMTS-5 = assay: Gene expression in rat articular chondrocytes under IL-1β stimulation, ADAMTS-5; assay type: cell-based; conditions: for ADAMTS-5 gene expression, percentage of inhibitory effect at the highest non toxic concentration: 6 h; for IC50: Rattus norvegicus, Chondrocyte, 6 h incubation
In short: as §1

IL-1β = assay: Gene expression in rat articular chondrocytes under IL-1β stimulation, IL-1β; assay type: cell-based; conditions: for IL-1β gene expression, percentage of inhibitory effect at the highest non toxic concentration: 6 h
In short: as §1

[1] = test system: bovine nasal septum cartilage; assay: Inhibition of cartilage degradation (GAG release) induced by IL-1α in a bovine in vitro model; assay type: cell-based; design: key to Bovine cartilage degradation induced by IL-1α, no effect: ne: no effect; conditions: for Inhibitory effect on the GAG release: at max concentration
In short: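 Cartilage punches (2 mm) from an 8-month-old male bovine nasal septum were cultured 48 h, then stimulated 48 h with IL-1α […] ± compound in DMEM + 0.1% BSA. Compound doses were set from 48 h rat chondrocyte toxicity. GAG in medium and papain-digested tissue was measured by DMB absorbance at 590 nm; degradation = medium GAG/total GAG × 100.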

[2] = test system: rat primary articular chondrocytes
MMP13 = assay: Gene expression in rat articular chondrocytes under IL-1β stimulation, MMP13; assay type: cell-based; design: key to MMP13 gene expression, no effect: ne: no effect
In short: as §1

NF-kB = assay: Gene reporter (GR) assay, NF-kB activation after TNFα in JB6 Cl 41-5a (P+) cells; assay type: cell-based, murine; conditions: TNFα 2 ng/ml, non toxic concentrations, read-out: Gene reporter (GR) inhibition IC50
In short: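 Murine JB6 Cl 41-5a (P+) cells stably carrying an NF-kB-RE luc2P reporter were pre-treated with compound for 1 h, then stimulated with 2 ng/ml TNFα for 4 h. Luciferase read-out with a paired viability read; quadruplicates.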

IL-6 = assay: Gene expression in rat articular chondrocytes under IL-1β stimulation, IL-6; assay type: cell-based; conditions: for IL-6 gene expression, percentage of inhibitory effect at the highest non toxic concentration: 6 h
[3] = test system: rat primary articular chondrocytes; assay: Toxicity analysis (MTT) in rat primary chondrocytes; conditions: for First toxic concentration at 24 h: rat primary chondrocytes
[4] = Bos taurus, read-out: Bovine cartilage degradation induced by IL-1α, % inhibitory effect at max concentration
[5] = Rattus norvegicus, Chondrocyte, 6 h incubation

| Structure (SMILES) | IC50 (VEGFR2) | IC50 (Fyn) | First toxic concentration at 48 h in rat primary chondrocytes [3] | First toxic concentration at 24 h [3] | IC50 (MMP3) | IC50 (NF-kB; Mus musculus, JB6 Cl 41-5a) | COX2 gene expression, percentage of inhibitory effect at the highest non toxic concentration (COX2; 10 μM) | IL-1β gene expression, percentage of inhibitory effect at the highest non toxic concentration (IL-1β; 10 μM) | inhibition at 3 µM [1, 4] | IL-6 gene expression, percentage of inhibitory effect at the highest non toxic concentration (IL-6; 10 μM) | other results |
| --- | --- | --- | --- | --- | --- | --- | --- | --- | --- | --- | --- |
| CC(=O)N1Cc2cnc(Nc3cc(CCc4cc(NC(=O)c5cccc(C(F)(F)F)c5)ccc4C)n[nH]3)cc2C1 [Compound 34, N-(3-(2-(5-((2-acetyl-2,3-dihydro-1H-pyrrolo[3,4-c]pyridin-6-yl)amino)-1H-pyrazol-3-yl)ethyl)-4-methylphenyl)-3-(trifluoromethyl) benzamide] | < 10 nM | 6 nM |  |  |  |  |  |  |  |  | MMP3 gene expression, percentage of inhibitory effect at the highest non toxic concentration (MMP3): 3 μM 58%; COX2 gene expression, percentage of inhibitory effect at the highest non toxic concentration (COX2; 3 μM): 3 μM 76%; ADAMTS-5 gene expression, percentage of inhibitory effect at the highest non toxic concentration (ADAMTS-5; 3 μM): 3 μM 97%; IL-1β gene expression, percentage of inhibitory effect at the highest non toxic concentration (IL-1β; 3 μM): 3 μM 99%; Bovine cartilage degradation induced by IL-1α, % inhibitory effect at max concentration ([1]; 1 μM): 96%; Inhibitory effect on the GAG release [1]: 95-100%; First toxic concentration at 24 h [2]: 10 µM; First toxic concentration at 48 h in rat primary chondrocytes [2]: 3 µM; MMP13 gene expression, percentage of inhibitory effect at the highest non toxic concentration (MMP13; 3 μM, 24 h): 3 μM 82%; IC50 (NF-kB): 958 nM; IL-6 gene expression, percentage of inhibitory effect at the highest non toxic concentration (IL-6; 3 μM): 3 μM 100% |
| O=C(Nc1ccc(F)c(CCc2cc(Nc3cnccn3)[nH]n2)c1)c1cccc(C(F)(F)F)c1 [Compound 13, N-(4-fluoro-3-(2-(5-(pyrazin-2-ylamino)-1H-pyrazol-3-yl)ethyl)phenyl)-3-(trifluoromethyl) benzamide] | < 10 nM | 26 nM | 3 µM | 3 µM | 300 nM | 308 nM |  |  |  |  | COX2 gene expression, percentage of inhibitory effect at the highest non toxic concentration (COX2; 1 μM): 1 μM 96%; ADAMTS-5 gene expression, percentage of inhibitory effect at the highest non toxic concentration (ADAMTS-5; 1 μM): 1 μM 88%; IL-1β gene expression, percentage of inhibitory effect at the highest non toxic concentration (IL-1β; 1 μM): 1 μM 96%; inhibition at 1 µM ([1]; Bos taurus, 1 μM, read-out: Bovine cartilage degradation induced by IL-1α, % inhibitory effect at max concentration): 97%; Inhibitory effect on the GAG release [1]: 95-100%; MMP13 gene expression, percentage of inhibitory effect at the highest non toxic concentration (MMP13; 1 μM, 24 h): 1 μM 94%; IL-6 gene expression, percentage of inhibitory effect at the highest non toxic concentration (IL-6; 1 μM): 1 μM 100% |
| Cc1ncc(Nc2cc(CCc3cc(NC(=O)c4cccc(C(F)(F)F)c4)ccc3F)n[nH]2)cn1 [Compound 40, N-(4-fluoro-3-(2-(5-((2-methylpyrimidin-5-yl)amino)-1H-pyrazol-3-yl)ethyl)phenyl)-3-(trifluoromethyl)benzamide] | < 10 nM | 99 nM | 10 µM | >10 µM | 500 nM | 515 nM | 10 μM 100% | 10 μM 100% | 49% | 10 μM 100% | IC50 (ADAMTS-5): 2300 nM; MMP13 gene expression, percentage of inhibitory effect at the highest non toxic concentration (MMP13; 10 μM, 24 h): 10 μM 100% |
| Cc1ccc(NC(=O)c2cccc(S(C)(=O)=O)c2)cc1CCc1cnc(Nc2cnccn2)s1 [Compound 48, N-(4-methyl-3-(2-(2-(pyrazin-2-ylamino)thiazol-5-yl)ethyl)phenyl)-3-(methylsulfonyl)benzamide] | 10 nM | 27 nM | 3 µM | 3 µM |  | 275 nM |  |  |  |  | MMP3 gene expression, no effect (MMP3): ne; COX2 gene expression, no effect (COX2): ne; ADAMTS-5 gene expression, percentage of inhibitory effect at the highest non toxic concentration (ADAMTS-5; 1 μM): 1 μM 70%; IC50 (IL-1β; [5]): 600 nM; Bovine cartilage degradation induced by IL-1α, no effect [1]: ne; MMP13 gene expression, no effect (MMP13; 24 h): ne; IC50 (IL-6; [5]): 200 nM |
| CC(C)(C#N)c1cc(C(=O)Nc2ccc(F)c(CCc3cc(Nc4cnccn4)[nH]n3)c2)ccn1 [Compound 11, 2-(2-cyanopropan-2-yl)-N-(4-fluoro-3-(2-(5-(pyrazin-2-ylamino)-1H-pyrazol-3-yl)ethyl)phenyl)isonicotinamide] | < 10 nM | 21 nM | >10 µM | >10 µM | 2200 nM | 785 nM | 10 μM 100% | 10 μM 100% |  | 10 μM 100% | ADAMTS-5 gene expression, percentage of inhibitory effect at the highest non toxic concentration (ADAMTS-5; 10 μM): 10 μM 100%; inhibition at 10 µM ([1]; Bos taurus, 10 μM, read-out: Bovine cartilage degradation induced by IL-1α, % inhibitory effect at max concentration): 89%; IC50 (MMP13; Rattus norvegicus, Chondrocyte, 24 h incubation): 2400 nM |
| Cc1ccc(NC(=O)c2cccc(C(F)F)c2)cc1CCc1cc(Nc2cnccn2)[nH]n1 [Compound 33, 3-(difluoromethyl)-N-(4-methyl-3-(2-(5-(pyrazin-2-ylamino)-1H-pyrazol-3-yl)ethyl)phenyl) benzamide] | < 10 nM | 16 nM | 10 µM | 10 µM |  | 363 nM |  |  | 91% |  | MMP3 gene expression, percentage of inhibitory effect at the highest non toxic concentration (MMP3): 3 μM 81%; COX2 gene expression, percentage of inhibitory effect at the highest non toxic concentration (COX2; 3 μM): 3 μM 89%; ADAMTS-5 gene expression, percentage of inhibitory effect at the highest non toxic concentration (ADAMTS-5; 3 μM): 3 μM 90%; IL-1β gene expression, percentage of inhibitory effect at the highest non toxic concentration (IL-1β; 3 μM): 3 μM 93%; MMP13 gene expression, percentage of inhibitory effect at the highest non toxic concentration (MMP13; 3 μM, 24 h): 3 μM 94%; IL-6 gene expression, percentage of inhibitory effect at the highest non toxic concentration (IL-6; 3 μM): 3 μM 100% |
| Cc1ccc(NC(=O)c2ccnc(C(C)(C)O)c2)cc1CCc1cc(Nc2cnccn2)[nH]n1 [Compound 5, 2-(2-hydroxypropan-2-yl)-N-(4-methyl-3-(2-(5-(pyrazin-2-ylamino)-1H-pyrazol-3-yl)ethyl)phenyl)isonicotinamide] | < 10 nM | 6 nM | 10 µM | >10 µM |  | 3260 nM | 10 μM 43% | 10 μM 84% | 79% | 10 μM 89% | MMP3 gene expression, no effect (MMP3): ne; IC50 (ADAMTS-5): 5500 nM; MMP13 gene expression, percentage of inhibitory effect at the highest non toxic concentration (MMP13; 10 μM, 24 h): 10 μM 32% |
